What follows are compounds tested against PDE5 (Cavia porcellus, UniProt H0VD23) (assay: Inhibition of cyclic nucleotide PDE activity (Assay I), PDE5). Settings: not given.
Type: biochemical, guinea pig
Protocol: Under a protocol approved by the Animal Care and Use Committee of Taipei Medical University, five male guinea pigs (Hartley), weighing 500-600 g, were sacrificed. The lungs (15 g) or hearts (4 g) taken therefrom were chopped into small pieces and homogenized with a glass/teflon homogenizer (Glas-Col, Terre Haute, Ind., USA) in 10 volumes of cold medium (pH 6.5) containing 20 mM Bis-Tris, 2 mM benzamidine, 2 mM EDTA, 50 mM sodium chloride, 0.1 mM phenylmethanesulfonyl fluoride (PMSF), and 1 mM dithiothreitol. At 4° C., the homogenate was centrifuged at 170 g for 15 min, and the supernatant thereof was then re-centrifuged at 40,000 g for 30 min. […] The column was washed with two bed volumes of homogenate buffer to remove unbound material, where the resin beads therein will bind with proteins, such as PDE proteins. […] And then the samples were frozen at −70° C.
In order to eliminate possible contamination of PDE5 by PDE1, the above-collected fractions with enzyme activity was further purified on a calmodulin-agarose column. The column (1.6 cm×4 cm) was pre-equilibrated by a buffer A, which contains 20 mM Bis-tris, 1 mM dithiothreitol, 2 mM benzamidine, 50 mM NaCl, 3 mMMgCl2, 0.1 mM CaCl2, and 0.1 mM PMSF, pH 6.5. The sample (the mixture of PDE5 and PDE1), being purified by the above-mentioned column, with the CaCl2 concentration thereof adjusted to at least 2 mM previously, was loaded and allowed to be absorbed on the gel for 30 min. Then, the PDE isozymes were eluted by stepwise elution using 20 ml of buffer A with 1 M NaCl followed by 20 ml of buffer A with 1 M NaCl and with 1 mM EGTA.
The activities of PDE1-5 in the homogenate were measured with a two-step procedure according to the method of Thompson and Appleman, using cAMP with [^3H]-cAMP or cGMP with [^3 H]-cGMP as substrates. The PDE enzyme prepared (25 μl) with 10 μl inhibitor or the solvents therefor was incubated for 30 min at 37° C. in a total assay buffer, where the final volume of the assay is amounted to 100 μl. In accordance with the features of the PDE isozymes, the assay buffer contains 50 mM Tris/HCl (pH 7.4), 3 mM MgCl2, 1 mM dithiothreitol, and 0.05% BSA, and optionally contains 1 uM cAMP with 0.2 μCi [^3H]-cAMP as a substrate alone or in the presence of 0.1 unit calmodulin with 10 μM CaCl2, or 5 μM cGMP, and 1 μM cGMP with 0.2 μCi [^3H]-cGMP as another substrate alone or in the presence of 0.1 unit calmodulin with 10 μM CaCl2.
The PDE enzyme and the inhibitors (or their solvent) therefor were mixed and incubated on ice for 30 min previously, and then mixed with the assay buffer. The assay was initiated by transferring the mixture to a water bath at 37° C. Following the other 30 min incubation, the reaction was stopped by transferring the reaction vessel to a bath of boiling water for 3 min. After cooling on ice, 20 μl of the 1 mg/ml of Crotalus atrox venom was added to the reaction mixture, and the mixture was incubated at 37° C. for 10 min. The uncatalyzed substrates, such as cAMP, [^3H]-cAMP, cGMP, or [^3H]-cGMP were removed by the addition of 500 μl of a 1-in-1 Tris-HCl (40 mM) buffer suspension of Dowex resin (1×8-200) with incubation on ice for 30 min, since the bindings of the cyclic nucleotides and the resin. Each tube was then centrifuged for 2 min at 6000 rpm, and 100 μl of the supernatant was removed and counted by a β-counter for calculating the enzyme (PDEs) activity.
The IC50 values of flavonoids and various reference drugs were calculated using non-linear regression analysis by the software SigmaPlot 7.0 (Sigma Chemical, St. Louis Mo., USA).

Structure (SMILES) | IC50
COc1cc(O)c2c(=O)c(-c3ccc(O)cc3)coc2c1 [Prunetin] | > 100 µM
O=c1c(-c2ccc(O)cc2)coc2cc(O)cc(O)c12 [Genistein] | 73.9 ± 7.1 µM

Same assay, conditions: mean ± S.E.M. (n); read-out: IC50 on phosphodiesterase isozyme 5

Structure (SMILES) | IC50
O=c1c(O)c(-c2cc(O)c(O)c(O)c2)oc2cc(O)cc(O)c12 [Myricetin] | > 100 µM
O=C1CC(c2ccc(O)c(O)c2)Oc2cc(O)cc(O)c21 (stereo not drawn) [Eriodictyol] | > 100 µM
O=c1cc(-c2ccc(O)c(O)c2)oc2cc(O)cc(O)c12 [Luteolin] | 19.3 ± 3.2 µM
COc1ccc(C2CC(=O)c3c(O)cc(O)cc3O2)cc1O (stereo not drawn) [Hesperetin] | > 100 µM
O=c1c(O)c(-c2ccc(O)c(O)c2)oc2cc(O)cc(O)c12 [Quercetin] | > 100 µM
COc1ccc(-c2coc3cc(O)cc(O)c3c2=O)cc1 [Biochanin A] | > 100 µM
O=c1cc(-c2ccc(O)cc2)oc2cc(O)cc(O)c12 [Apigenin] | > 100 µM
O=c1c(-c2ccc(O)cc2)coc2cc(O)ccc12 [Daidzein] | > 100 µM
O=c1cc(-c2ccccc2)oc2cc(O)cc(O)c12 [Chrysin] | > 100 µM
O=c1cc(-c2ccc(O)c(O)c2)oc2cc(O[C@@H]3O[C@H](CO)[C@@H](O)[C@H](O)[C@H]3O)cc(O)c12 [Luteolin-7-glucoside] | > 100 µM
